Patent US10899785B2, “Aminoglycoside derivatives and uses thereof in treating genetic disorders” (Eloxx Pharmaceuticals Ltd., priority 2015, dated 2021)
≈ marks a conversion by molar mass, not a printed value. Read-outs that look alike come from different tables or passages of the source.

Assays:
B. subtilis ATCC-6633 = experiment: Antibacterial activity, MIC by double-microdilution; format: cell-based; settings: Bacillus subtilis
Protocol: (§1) Comparative antibacterial activities were determined in two representative strains of Gram-negative (E. coli R477-100) and Gram-positive (B. subtilis ATCC-6633) bacteria, by measuring the MIC values using the double-microdilution method according to the National Committee for Clinical Laboratory Standards (NCCLS) (NCCLS. National Committee for Clinical Laboratory Standards, Performance standards for antimicrobial susceptibility testing. Fifth information supplement: Approved Standard M100-S5; Villanova, Pa.: NCCLS, 1994.).
(§2) In all biological tests, all AGs were in their sulfate salt forms, and the concentrations refer to the free amine form of each AG. The eukaryotic and prokaryotic half-maximal-inhibition values (IC50^Euk and IC50^Pro) were quantified in coupled transcription/translation assays by using active luciferase detection as previously described. Minimal inhibitory concentration (MIC) values were determined by using the double-microdilution method.

E. coli R477-100 = experiment: as above; format: cell-based; settings: Escherichia coli, R477100, read-out: Antibacterial Activity MIC E. Coli R 477/100
Protocol: as §1, §2

human fibroblast cells = settings: against human fibroblast cells; cited from earlier work
[1] = tested on: eukaryotic cytoplasmic ribosome; experiment: Eukaryotic in vitro translation inhibition, TNT T7 Quick Coupled Transcription/Translation System, luciferase; format: biochemical; settings: NB156 vs NB74, NB157 vs NB124
Protocol: Prokaryotic in vitro translation inhibition by the different aminoglycosides was quantified in coupled transcription/translation assays by using E. coli S30 extract for circular DNA with the pBESTluc plasmid (Promega), according to the manufacturer's protocol. Translation reactions (25 μL) that contained variable concentrations of the tested aminoglycoside were incubated at 37° C. for 60 minutes, cooled on ice for 5 minutes, and diluted with a dilution reagent (tris-phosphate buffer (25 mM, pH 7.8), DTT (2 mM), 1,2-diaminocyclohexanetetraacetate (2 mM), glycerol (10%), Triton X-100 (1%) and BSA (1 mg mL-1)) into 96-well plates. Eukaryotic in vitro translation inhibition was quantified by use of TNT® T7 Quick Coupled Transcription/Translation System with a luciferase T7 control DNA plasmid (Promega), according to the manufacturer protocol. […] In both prokaryotic and eukaryotic systems the luminescence was measured immediately after the addition of the Luciferase Assay Reagent (50 μL; Promega), and the light emission was recorded with a FLx800 Fluorescence Microplate Reader (Biotek). […]
In all biological tests, all AGs were in their sulfate salt forms, and the concentrations refer to the free amine form of each AG. […] Minimal inhibitory concentration (MIC) values were determined by using the double-microdilution method.

[2] = tested on: prokaryotic ribosome (E. coli S30 extract); experiment: Prokaryotic in vitro translation inhibition, coupled transcription/translation, E. coli S30 extract, pBESTluc; format: biochemical; settings: from IC50^Pro and MIC values of Tables 4 and 6
Protocol: Prokaryotic in vitro translation inhibition by the different aminoglycosides was quantified in coupled transcription/translation assays by using E. coli S30 extract for circular DNA with the pBESTluc plasmid (Promega), according to the manufacturer's protocol. Translation reactions (25 μL) that contained variable concentrations of the tested aminoglycoside were incubated at 37° C. for 60 minutes, cooled on ice for 5 minutes, and diluted with a dilution reagent (tris-phosphate buffer (25 mM, pH 7.8), DTT (2 mM), 1,2-diaminocyclohexanetetraacetate (2 mM), glycerol (10%), Triton X-100 (1%) and BSA (1 mg mL-1)) into 96-well plates. Eukaryotic in vitro translation inhibition was quantified by use of TNT® T7 Quick Coupled Transcription/Translation System with a luciferase T7 control DNA plasmid (Promega), according to the manufacturer protocol. Translation reactions (25 μL) containing variable concentrations of the tested aminoglycoside were incubated at 30° C. for 60 minutes, cooled on ice for 5 minutes, diluted with the dilution reagent and transferred into 96-well plates. In both prokaryotic and eukaryotic systems the luminescence was measured immediately after the addition of the Luciferase Assay Reagent (50 μL; Promega), and the light emission was recorded with a FLx800 Fluorescence Microplate Reader (Biotek). The half-maximal inhibition concentration (IC50) values were obtained from fitting concentration-response curves to the data of at least two independent experiments by using Grafit 5 software.
as §2

[3] = tested on: nonsense constructs R3X and R245X (USH1), Q70X (HS), G542X (CF); experiment: Dual luciferase in vitro readthrough assay, p2Luc plasmids, TNT Reticulocyte Lysate; format: biochemical; settings: all mutations tested: R3X, R245X, Q70X, G542X; FIGS. 11A-D
Text: DNA fragments derived from PCDH15, CFTR, and IDUA cDNAs, including the tested nonsense mutation or the corresponding wild type (wt) codon, and four to six upstream and downstream flanking codons were created by annealing the following pairs of complementary oligonucleotides:
Fragments were inserted in frame into the polylinker of the p2Luc plasmid between either BamHI and SacI (p.R3X and p.R245X) or SalI and SacI (all the rest) restriction sites. For the in vitro readthrough assays, the obtained plasmids, with addition of the tested aminoglycosides were transcribed and translated using the TNT Reticulocyte Lysate Quick Coupled Transcription/Translation System. Luciferase activity was determined after 90 minutes of incubation at 30° C., using the Dual Luciferase Reporter Assay System (Promega™).
Activity was tested using a collection of dual-luciferase reporter plasmids, containing different sequence contests around premature stop codons derived from the PCDH15, CFTR, and IDUA genes that underline USH1, CF, and MPS I-H, respectively. The exemplified nonsense reporters were R3X and R245X for USH1, G542X for CF, and Q70X for MPS I-H.

[4] = tested on: stop codon mutations of Table 5; experiment: Dual-luciferase readthrough of a broad arsenal of stop codon mutations; format: biochemical; settings: all tested mutations
Protocol: In these assays, the readthrough of a broad arsenal of stop codon mutations in the presence of NB156 and NB157 was tested. Briefly, NB156 and NB157 were tested at escalating doses for their read-through properties towards the nonsense mutation using the wild-type (WT) sequence of each specific complementary DNA (cDNA) as a control, and plasmids bearing the stop codon mutations in a dual-luciferase assay. DNA fragments derived from different cDNAs were prepared using either the WT or nonsense mutation, in which the sequences from the mutant or wild-type codon were surrounded by four to six upstream and downstream flanking codons. The cDNA sequence was inserted into the polylinker of the p2luc plasmid for each sequence.

SMILES	MIC (B. subtilis ATCC-6633; ATCC6633, read-out: Antibacterial Activity MIC B. Subtilis ATCC6633) [µM]	MIC (E. coli R477-100) [µM]	LD50 (human fibroblast cells) [mg/mL]	fold more specific to the eukaryotic ribosome than structurally related compound [1] [fold]	prokaryotic ribosome/protein synthesis inhibition and subsequent antibacterial activity compared with structurally related compound [2]	MIC (B. subtilis ATCC-6633; ATCC6633, Table 4, read-out: Antibacterial Activity MIC B. Subtilis ATCC6633) [µM]	readthrough activity compared with gentamicin [3]	readthrough activity compared with structurally related compound [3]	stop-codon mutation readthrough activity compared with NB74 [4]
CN[C@@H]1[C@@H](O)[C@@H](O[C@@H]2[C@@H](O)[C@H](O[C@H]3O[C@H]([C@@H](C)O)[C@@H](O)[C@H](O)[C@H]3N)[C@@H](N)C[C@H]2N)OC[C@]1(C)O [Compound G418, geneticin, reference compound]	< 1.25	9 (≈ 4.47 µg/mL)	0.04						
NC[C@H]1O[C@@H](O[C@@H]2[C@@H](O)[C@H](N)C[C@H](N)[C@H]2O[C@H]2O[C@H]([C@H](O)CO)[C@@H](O)[C@H](O)[C@H]2N)[C@@H](O)[C@H]1O [NB156, (2R, 3S, 4R, 5R, 6S)-5-amino-6-(((1R, 2R, 3S, 4R, 6S)-4,6-diamino-2-(((2S, 3S, 4R, 5R)-5-(aminomethyl)-3,4-dihydroxytetrahydrofuran-2-yl)oxy)-3-hydroxycyclohexyl)oxy)-2-((R)-1,2-dihydroxyethyl)tetrahydro-2H-pyran-3,4-diol]		> 273		1.85	very similar to those of their structurally related Compounds NB74 and NB124	34 (≈ 16.5 µg/mL)	significantly better than that of the clinical drug gentamicin	substantially better than that of the structurally related NB74	more active than NB74
